Measured values as given in patent US8912169B2, “Beta-lactamase inhibitors” (VenatoRx Pharmaceuticals, Inc., priority 2012, dated 2014).
Like-named read-outs stand apart in the source and are kept apart here.

How the values were obtained:
VIM-2 = target: T1, VIM-2 (Escherichia coli, UniProt Q5U7L7); test: β-lactamase enzyme inhibition, VIM-2; format: biochemical; conditions: substrate Nitrocefin 100 μM, 486 nm; read-out: Class B VIM-2 IC50
T1 construct: made in house; host or cells: E. coli BL21(DE3)
Outline: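 Purified VIM-2 (Q sepharose, 50 mM Hepes pH 7.5, >90% purity) preincubated with inhibitor 15 min at 37° C, then nitrocefin added at 100 μM final. Hydrolysis followed at 486 nm for 10 min; IC50 from initial rates versus inhibitor-free control wells.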

OXA-1 = target: T2, OXA-1 (Escherichia coli, UniProt P13661); test: β-lactamase enzyme inhibition, OXA-1; format: biochemical; conditions: substrate Nitrocefin 100 μM, 486 nm; read-out: Class D OXA-1 IC50
T2 construct: made in house; host or cells: E. coli BL21(DE3)
Outline: (§1)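 Native untagged β-lactamases expressed in E. coli BL21(DE3) and purified, then pre-incubated with inhibitor 15 min at 37 °C. Hydrolysis was followed by absorbance: 100 μM nitrocefin at 486 nm for p99 AmpC and OXA-1; imipenem at 300 nm for KPC-2; cefotaxime at 260 nm for SHV-5. IC50 from initial-rate inhibition versus uninhibited controls.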

SHV-5 = target: T3, SHV-5 (Klebsiella pneumoniae, UniProt P0A3M1); test: β-lactamase enzyme inhibition, SHV-5; format: biochemical
T3 construct: made in house; host or cells: E. coli BL21(DE3)
Outline: as §1

p99 AmpC = target: T4, p99 AmpC (Enterobacter cloacae, UniProt P05364); test: β-lactamase enzyme inhibition, p99 AmpC; format: biochemical
T4 construct: made in house; host or cells: E. coli BL21(DE3)
Outline: as §1

KPC-2 = target: T5, KPC-2 (Klebsiella pneumoniae, UniProt Q9F663); test: β-lactamase enzyme inhibition, KPC-2; format: biochemical; conditions: substrate imipenem, 300 nm; read-out: Class A KPC-2 IC50
T5 construct: made in house; host or cells: E. coli BL21(DE3)
Outline: as §1

P. aerug. Ps296 VIM-2 = test: broth microdilution MIC, P. aeruginosa VIM-2; format: cell-based; conditions: for MIC of exemplary compounds in presence of fixed β-lactams, P. aerug. Ps296 VIM-2: Fixed Mero 4 μg/mL
Description: (§2) To determine the ability of test compounds to potentiate the inhibition of the growth of bacterial strains that produce beta-lactamase enzymes, classic cell based broth microdilution MIC assays were employed. Six bacteria strains producing beta-lactamase enzymes were used: E. coli expressing the Class A Extended Spectrum Beta-Lactamase (ESBL) CTX-M-15, E. cloacae expressing the Class C P99, K. pneumoniae expressing the Class A carbapenemase KPC-3, P. aeruginosa expressing the Class B carbapenemase VIM-2, K. pneumoniae expressing the class A carbapenemase KPC-2 and the class B carbapenemase VIM-4, and S. aureus producing the Class A penicillinase PC-1. The assay was conducted in Cation Adjusted Mueller Hinton Broth (CAMHB, BD #212322, BD Diagnostic Systems, Sparks, Md.). Bacteria strains were grown for 3-5 hours in CAMBH broth. Test compounds were added to a microtiter plate in 2-fold serial dilutions in CAMHB in a final concentration range of 32 μg/mL to 0.25 μg/ml. An overlay of CAMHB containing a Beta-lactam was added to the compounds at a final static concentration of 4 μg/ml. […] In addition to the titration of test compounds the MICs of a panel of control beta-lactams is also tested to ensure the strains are behaving consistently from test to test. Once the test compound and antibiotics are added the plates can be inoculated according to CLSI broth microdilution method. After inoculation the plates are incubated for 16-20 hours at 37° C. then the Minimal Inhibitory Concentration (MIC) of the test compound is determined visually.
Using the methodology described above in EXAMPLE III, exemplary compounds for Formula I or Formula Ia were evaluated for their ability to inhibit the growth of β-lactamase producing bacteria in the presence of a β-lactam antibiotic.
Representative results are shown in Table 4 where A represents an MIC of the fixed β-lactam antibiotic in the presence of >32 μg/mL of a β-lactamase inhibitor of exemplary compounds, B represents the MIC in the presence of between 8 and 32 μg/mL of a β-lactamase inhibitor of exemplary compounds, and C represents the MIC in the presence of ≦4 μg/mL of a β-lactamase inhibitor of exemplary compounds. NT=Not Tested.

E. cl. 144200 p99 AmpC = test: broth microdilution MIC, E. cloacae P99; format: cell-based; conditions: Fixed CAZ 4 μg/mL
Description: as §2
(§3) Using the methodology described above in EXAMPLE III, exemplary compounds for Formula I or Formula Ia were evaluated for their ability to inhibit the growth of β-lactamase producing bacteria in the presence of a β-lactam antibiotic. […]

K.P. A-1797 KPC-2 VIM-4 = test: broth microdilution MIC, K. pneumoniae KPC-2 and VIM-4; format: cell-based; conditions: Fixed Mero 4 μg/mL
Description: as §2, §3

K.P. 156319 KPC-3 = test: broth microdilution MIC, K. pneumoniae KPC-3; format: cell-based; conditions: Fixed Mero 4 μg/mL
Description: as §2, §3

E. coli ESBL4 CTX-M-15 = test: broth microdilution MIC, E. coli CTX-M-15; format: cell-based; conditions: Fixed CAZ 4 μg/mL
Description: as §2, §3

[1] = substrate Cefotaxime, 260 nm, read-out: Class A SHV-5 IC50
[2] = substrate Nitrocefin 100 μM, 486 nm, read-out: Class C AmpC IC50

Molecule	IC50 (VIM-2)	IC50 (OXA-1)	IC50 (SHV-5)	IC50 (p99 AmpC)	IC50 (KPC-2)	MIC (P. aerug. Ps296 VIM-2; Pseudomonas aeruginosa, partner antibiotic alone, P. aeruginosa expressing VIM-2)	MIC of exemplary compounds in presence of fixed β-lactams, P. aerug. Ps296 VIM-2 (P. aerug. Ps296 VIM-2)	MIC of exemplary compounds in presence of fixed β-lactams, E. cl. 144200 p99 AmpC (E. cl. 144200 p99 AmpC)	MIC of exemplary compounds in presence of fixed β-lactams, K.P. A-1797 KPC-2 VIM-4 (K.P. A-1797 KPC-2 VIM-4)	MIC of exemplary compounds in presence of fixed β-lactams, K.P. 156319 KPC-3 (K.P. 156319 KPC-3)	MIC of exemplary compounds in presence of fixed β-lactams, E. coli ESBL4 CTX-M-15 (E. coli ESBL4 CTX-M-15)	IC50 (SHV-5; [1])	IC50 (p99 AmpC; [2])
O=C(C[C@H]1CC[C@H](NCCNCC2CC2)CC1)N[C@H]1Cc2cccc(C(=O)O)c2OB1O [Example 74, (R)-3-(2-(trans-4-(2-(cyclopropylmethylamino)ethylamino)cyclohexyl)acetamido)-2-hydroxy-3,4-dihydro-2H-benzo[e][1,2]oxaborinine-8-carboxylic acid]	< 100 nM	< 100 nM	< 100 nM	< 100 nM	< 100 nM								
O=C(C[C@H]1CC[C@H](NCCN(CC2CC2)CC2CC2)CC1)N[C@H]1Cc2cccc(C(=O)O)c2OB1O [Example 75, (R)-3-(2-(trans-4-(2-(bis(cyclopropylmethyl)amino)ethylamino)cyclohexyl)acetamido)-2-hydroxy-3,4-dihydro-2H-benzo[e][1,2]oxaborinine-8-carboxylic acid]	< 100 nM	< 100 nM	< 100 nM	< 100 nM	< 100 nM								
NCCC(N)[C@H]1CC[C@H](CC(=O)N[C@H]2Cc3cccc(C(=O)O)c3OB2O)CC1 (stereo partly drawn) [Example 76, (R)-3-(2-(trans-4-(1,3-diaminopropyl)cyclohexyl)acetamido)-2-hydroxy-3,4-dihydro-2H-benzo[e][1,2]oxaborinine-8-carboxylic acid]	< 100 nM	< 100 nM	< 100 nM	< 100 nM	< 100 nM								
NCC(N)[C@H]1CC[C@H](CC(=O)N[C@H]2Cc3cccc(C(=O)O)c3OB2O)CC1 (stereo partly drawn) [Example 77, (R)-3-(2-(trans-4-(1,2-diaminoethyl)cyclohexyl)acetamido)-2-hydroxy-3,4-dihydro-2H-benzo[e][1,2]oxaborinine-8-carboxylic acid]	100 to 1000 nM	< 100 nM	< 100 nM	< 100 nM	100 to 1000 nM								
CCNCCN[C@H]1CC[C@H](CC(=O)N[C@H]2Cc3cccc(C(=O)O)c3OB2O)CC1 [Example 78, (R)-3-(2-(trans-4-(2-(ethylamino)ethylamino)cyclohexyl)acetamido)-2-hydroxy-3,4-dihydro-2H-benzo[e][1,2]oxaborinine-8-carboxylic acid]	< 100 nM	< 100 nM	< 100 nM	< 100 nM	< 100 nM								
CN(C)CCN[C@H]1CC[C@H](CC(=O)N[C@H]2Cc3cccc(C(=O)O)c3OB2O)CC1 [Example 79, (R)-3-(2-(trans-4-(2-(dimethylamino)ethylamino)cyclohexyl)acetamido)-2-hydroxy-3,4-dihydro-2H-benzo[e][1,2]oxaborinine-8-carboxylic acid]	< 100 nM	< 100 nM	< 100 nM	< 100 nM	< 100 nM								
C[C@@H](O)[C@H]1C(=O)N2C(C(=O)O)=C(S[C@@H]3CN[C@H](C(=O)N(C)C)C3)[C@H](C)[C@H]12 [Meropenem, reference compound]						16 µg/mL							
(3R)-3-[[2-[(1S,3S,4S)-3,4-bis(aminomethyl)cyclohexyl]acetyl]amino]-2-hydroxy-3,4-dihydro-1,2-benzoxaborinine-8-carboxylic acid and (3R)-3-[[2-[(1R,3R,4R)-3,4-bis(aminomethyl)cyclohexyl]acetyl]amino]-2-hydroxy-3,4-dihydro-1,2-benzoxaborinine-8-carboxylic acid [Example 18]	< 100 nM	< 100 nM			< 100 nM		C (C represents the MIC in the presence of ≦4 μg/mL of a β-lactamase inhibitor of exemplary compounds)	C (C represents the MIC in the presence of ≦4 μg/mL of a β-lactamase inhibitor of exemplary compounds)	B (B represents the MIC in the presence of between 8 and 32 μg/mL of a β-lactamase inhibitor of exemplary compounds)	C (C represents the MIC in the presence of ≦4 μg/mL of a β-lactamase inhibitor of exemplary compounds)	C (C represents the MIC in the presence of ≦4 μg/mL of a β-lactamase inhibitor of exemplary compounds)	< 100 nM	< 100 nM
(3R)-3-[[(1S,3S,4S)-3,4-diaminocyclohexanecarbonyl]amino]-2-hydroxy-3,4-dihydro-1,2-benzoxaborinine-8-carboxylic acid and (3R)-3-[[(1R,3R,4R)-3,4-diaminocyclohexanecarbonyl]amino]-2-hydroxy-3,4-dihydro-1,2-benzoxaborinine-8-carboxylic acid [Example 20]	< 100 nM	100 to 1000 nM			100 to 1000 nM		C (C represents the MIC in the presence of ≦4 μg/mL of a β-lactamase inhibitor of exemplary compounds)	C (C represents the MIC in the presence of ≦4 μg/mL of a β-lactamase inhibitor of exemplary compounds)	B (B represents the MIC in the presence of between 8 and 32 μg/mL of a β-lactamase inhibitor of exemplary compounds)	C (C represents the MIC in the presence of ≦4 μg/mL of a β-lactamase inhibitor of exemplary compounds)	C (C represents the MIC in the presence of ≦4 μg/mL of a β-lactamase inhibitor of exemplary compounds)	1000 to 10000 nM	< 100 nM
(3R)-3-[[(3S,4S)-3,4-diaminocyclopentanecarbonyl]amino]-2-hydroxy-3,4-dihydro-1,2-benzoxaborinine-8-carboxylic acid and (3R)-3-[[(3R,4R)-3,4-diaminocyclopentanecarbonyl]amino]-2-hydroxy-3,4-dihydro-1,2-benzoxaborinine-8-carboxylic acid [Example 19]	< 100 nM	< 100 nM			< 100 nM		C (C represents the MIC in the presence of ≦4 μg/mL of a β-lactamase inhibitor of exemplary compounds)	C (C represents the MIC in the presence of ≦4 μg/mL of a β-lactamase inhibitor of exemplary compounds)	C (C represents the MIC in the presence of ≦4 μg/mL of a β-lactamase inhibitor of exemplary compounds)	C (C represents the MIC in the presence of ≦4 μg/mL of a β-lactamase inhibitor of exemplary compounds)	C (C represents the MIC in the presence of ≦4 μg/mL of a β-lactamase inhibitor of exemplary compounds)	100 to 1000 nM	< 100 nM
